Values after ≈ are worked out from the molar mass of the structure shown.

The test system of data set [1] is Staphylococcus aureus. As to the kind of experiment: Antibacterial activity against methicillin resistant Staphylococcus aureus ATCC 33591 assessed as inhibition of bacterial growth incubated for 18 to 24 hrs by broth microdilution method. The data set is classed as functional. The note with it: time 18-24 hrs.
For data set [2], the system named is Staphylococcus aureus. As to the kind of experiment: Antibacterial activity against Staphylococcus aureus ATCC 29213 assessed as inhibition of bacterial growth incubated for 18 to 24 hrs by broth microdilution method. The data set is classed as functional. The note with it: time 18-24 hrs.
The test system of data set [3] is Staphylococcus epidermidis. As to the kind of experiment: Antibacterial activity against methicillin resistant Staphylococcus epidermidis clinical isolate 19-5 assessed as inhibition of bacterial growth incubated for 18 to 24 hrs by broth microdilution method. The data set is classed as functional. The settings on record: time 18-24 hrs.
Data set [4] concerns Staphylococcus epidermidis. Briefly: Antibacterial activity against methicillin resistant Staphylococcus epidermidis clinical isolate 19-6 assessed as inhibition of bacterial growth incubated for 18 to 24 hrs by broth microdilution method. The format is functional. The note with it: time 18-24 hrs.
The subject of data set [5] is Escherichia coli. Briefly: Antibacterial activity against Escherichia coli ATCC BAA-2523 assessed as inhibition of bacterial growth incubated for 18 to 24 hrs by broth microdilution method. The settings on record: time 18-24 hrs. The data set is classed as functional.
In data set [6] the test system is Escherichia coli. Briefly: Antibacterial activity against Escherichia coli NCTC 13353 assessed as inhibition of bacterial growth incubated for 18 to 24 hrs by broth microdilution method. The format is functional. The settings on record: time 18-24 hrs.
Data set [7] has as its system Escherichia coli. Briefly: Antibacterial activity against Escherichia coli clinical isolate 19-2 assessed as inhibition of bacterial growth incubated for 18 to 24 hrs by broth microdilution method. The format is functional. The settings on record: time 18-24 hrs.
The subject of data set [8] is Escherichia coli. As to the kind of experiment: Antibacterial activity against KPC producing Escherichia coli ATCC BAA-2340 assessed as inhibition of bacterial growth incubated for 18 to 24 hrs by broth microdilution method. The data set is classed as functional. The note with it: time 18-24 hrs.
Data set [9] relates to Klebsiella pneumoniae. As to the kind of experiment: Antibacterial activity against carbapenem resistant Klebsiella pneumoniae clinical isolate 19-15 assessed as inhibition of bacterial growth incubated for 18 to 24 hrs by broth microdilution method. The settings on record: time 18-24 hrs. The format is functional.
The subject of data set [10] is Klebsiella pneumoniae. Briefly: Antibacterial activity against carbapenem resistant Klebsiella pneumoniae clinical isolate 19-17 assessed as inhibition of bacterial growth incubated for 18 to 24 hrs by broth microdilution method. The data set is classed as functional. The note with it: time 18-24 hrs.
The test system of data set [11] is Klebsiella pneumoniae. Briefly: Antibacterial activity against KPC producing Klebsiella pneumoniae ATCC BAA-1705 assessed as inhibition of bacterial growth incubated for 18 to 24 hrs by broth microdilution method. The data set is classed as functional. The note with it: time 18-24 hrs.
Data set [12] relates to Pseudomonas aeruginosa. Briefly: Antibacterial activity against Pseudomonas aeruginosa clinical isolate 19-1 assessed as inhibition of bacterial growth incubated for 18 to 24 hrs by broth microdilution method. The data set is classed as functional. The note with it: time 18-24 hrs.
In data set [13] the test system is Pseudomonas aeruginosa. As to the kind of experiment: Antibacterial activity against carbapenem resistant Pseudomonas aeruginosa clinical isolate 19-3 assessed as inhibition of bacterial growth incubated for 18 to 24 hrs by broth microdilution method. The data set is classed as functional. The settings on record: time 18-24 hrs.
Data set [14] deals with Pseudomonas aeruginosa. As to the kind of experiment: Antibacterial activity against carbapenem resistant Pseudomonas aeruginosa clinical isolate 17-1 assessed as inhibition of bacterial growth incubated for 18 to 24 hrs by broth microdilution method. The data set is classed as functional. The note with it: time 18-24 hrs.
The subject of data set [15] is Pseudomonas aeruginosa. As to the kind of experiment: Antibacterial activity against Pseudomonas aeruginosa ATCC 27853 assessed as inhibition of bacterial growth incubated for 18 to 24 hrs by broth microdilution method. The settings on record: time 18-24 hrs. The data set is classed as functional.
For data set [16], the system named is Acinetobacter baumannii. As to the kind of experiment: Antibacterial activity against carbapenem resistant Acinetobacter baumannii clinical isolate 19-8 assessed as inhibition of bacterial growth incubated for 18 to 24 hrs by broth microdilution method. The format is functional. The note with it: time 18-24 hrs.
In data set [17] the test system is Acinetobacter baumannii. Briefly: Antibacterial activity against oxacillinase-27 producing Acinetobacter baumannii NCTC 13304 assessed as inhibition of bacterial growth incubated for 18 to 24 hrs by broth microdilution method. The format is functional. The note with it: time 18-24 hrs.
A short description of data set [18]: Cytotoxicity against human HK-2 cells assessed as inhibition of cell growth incubated for 72 hrs by CCK-8 assay. The data set is classed as toxicity, cell-based.
Data set [19] can be described thus: Selectivity index, ratio of IC50 for cytotoxicity against human HK-2 cells to MIC for antibacterial activity against Escherichia coli ATCC BAA-2523. The data set is classed as toxicity, cell-based.

Consider `CCCCCCCCCC(=O)N[C@H](CCN)C(=O)N[C@H]1CCNC(=O)[C@H](CC(C)C)NC(=O)[C@H](CCN)NC(=O)[C@H](CCN)NC(=O)[C@H](CC(C)C)NC(=O)[C@@H](CC(C)C)NC(=O)[C@H](CCN)NC1=O`, for which the minimal inhibitory concentration (MIC) was 64 µg/mL (≈ 64.4 µM) in the data set with Staphylococcus aureus [1]; 32 µg/mL (≈ 32.2 µM) in the data set with Staphylococcus aureus [2]; 2 µg/mL (≈ 2.01 µM) in data set [3]; 8 µg/mL (≈ 8.05 µM) in data set [4]; 16 µg/mL (≈ 16.1 µM) in the data set on Escherichia coli [5]; 16 µg/mL (≈ 16.1 µM) in the data set with Escherichia coli [6]. The minimal inhibitory concentration (MIC) with Escherichia coli [7] was 16 µg/mL (≈ 16.1 µM); with Escherichia coli [8], 4 µg/mL (≈ 4.02 µM); in the data set on Klebsiella pneumoniae [9], 8 µg/mL (≈ 8.05 µM); with Klebsiella pneumoniae [10], 16 µg/mL (≈ 16.1 µM); in the data set on Klebsiella pneumoniae [11], 2 µg/mL (≈ 2.01 µM); in the data set with Pseudomonas aeruginosa [12], 2 µg/mL (≈ 2.01 µM). The MIC with Pseudomonas aeruginosa [13] stood at 8 µg/mL (≈ 8.05 µM); with Pseudomonas aeruginosa [14], 2 µg/mL (≈ 2.01 µM); in the data set on Pseudomonas aeruginosa [15] it was 1 µg/mL (≈ 1.01 µM); with Acinetobacter baumannii [16], 4 µg/mL (≈ 4.02 µM); in the data set on Acinetobacter baumannii [17], 8 µg/mL (≈ 8.05 µM). In addition, the concentration for half-maximal inhibition (IC50) at 72 h in data set [18] was determined as 53.5 µg/mL (≈ 53.8 µM). In data set [19], the selectivity ratio came to 3.3.
Take `CCCCCCCCCC(=O)N[C@H](CCN)C(=O)N[C@H]1CCNC(=O)[C@H]([C@@H](C)O)NC(=O)[C@H](CCN)NC(=O)[C@H](CCN)NC(=O)[C@H](CC(C)C)NC(=O)[C@@H](Cc2ccc(Cl)cc2)NC(=O)[C@H](CCN)NC1=O`: the minimum inhibitory concentration (MIC) in the data set with Staphylococcus aureus [1] came out at 16 µg/mL (≈ 15.2 µM); with Staphylococcus aureus [2], 8 µg/mL (≈ 7.61 µM); in data set [3], 0.5 µg/mL (≈ 0.476 µM); in data set [4], 4 µg/mL (≈ 3.81 µM); in the data set on Escherichia coli [5] it was 1 µg/mL (≈ 0.952 µM); in the data set on Escherichia coli [6], 2 µg/mL (≈ 1.9 µM). Also, the MIC with Escherichia coli [7] was 1 µg/mL (≈ 0.952 µM); with Escherichia coli [8], 1 µg/mL (≈ 0.952 µM); with Klebsiella pneumoniae [9] it was 2 µg/mL (≈ 1.9 µM); with Klebsiella pneumoniae [10] it was 2 µg/mL (≈ 1.9 µM); in the data set on Klebsiella pneumoniae [11] it was 0.5 µg/mL (≈ 0.476 µM); with Pseudomonas aeruginosa [12], 0.5 µg/mL (≈ 0.476 µM). For the same molecule, the MIC amounted to 0.5 µg/mL (≈ 0.476 µM) in the data set on Pseudomonas aeruginosa [13]; 1 µg/mL (≈ 0.952 µM) in the data set on Pseudomonas aeruginosa [14]; 0.5 µg/mL (≈ 0.476 µM) in the data set on Pseudomonas aeruginosa [15]; 32 µg/mL (≈ 30.5 µM) in the data set on Acinetobacter baumannii [16]; 8 µg/mL (≈ 7.61 µM) in the data set with Acinetobacter baumannii [17]. In data set [18], the IC50 at 72 h amounted to 48.1 µg/mL (≈ 45.8 µM). Moreover, in data set [19], the selectivity ratio is 48.1.
Take `CCCCCCC[C@H](O)CC(=O)N[C@H](CCN)C(=O)N[C@H]1CCNC(=O)[C@H](CC(C)C)NC(=O)[C@H](CCN)NC(=O)[C@H](CCN)NC(=O)[C@H](CC(C)C)NC(=O)[C@@H](CC(C)C)NC(=O)[C@H](CCN)NC1=O`: the MIC is greater than 64 µg/mL in the data set with Staphylococcus aureus [1]; greater than 64 µg/mL with Staphylococcus aureus [2]; 2 µg/mL (≈ 1.98 µM) in data set [3]; 16 µg/mL (≈ 15.8 µM) in [4]; 4 µg/mL (≈ 3.96 µM) in the data set on Escherichia coli [5]; 8 µg/mL (≈ 7.92 µM) in the data set on Escherichia coli [6]. The MIC came to 8 µg/mL (≈ 7.92 µM) in the data set on Escherichia coli [7]; 2 µg/mL (≈ 1.98 µM) in the data set with Escherichia coli [8]; 8 µg/mL (≈ 7.92 µM) in the data set on Klebsiella pneumoniae [9]; 8 µg/mL (≈ 7.92 µM) in the data set with Klebsiella pneumoniae [10]; 4 µg/mL (≈ 3.96 µM) in the data set on Klebsiella pneumoniae [11]; 2 µg/mL (≈ 1.98 µM) in the data set with Pseudomonas aeruginosa [12]. In addition, the minimum inhibitory concentration (MIC) in the data set on Pseudomonas aeruginosa [13] is 4 µg/mL (≈ 3.96 µM); in the data set with Pseudomonas aeruginosa [14], 2 µg/mL (≈ 1.98 µM); in the data set on Pseudomonas aeruginosa [15] it was 1 µg/mL (≈ 0.99 µM); with Acinetobacter baumannii [16], 2 µg/mL (≈ 1.98 µM); in the data set on Acinetobacter baumannii [17], 1 µg/mL (≈ 0.99 µM). Also, the IC50 at 72 h in data set [18] worked out at 77.6 µg/mL (≈ 76.8 µM). In addition, the selectivity ratio in data set [19] came to 19.4.
Consider `CCCCCCCCCC(=O)N[C@@H](C(=O)N[C@H]1CCNC(=O)[C@H]([C@@H](C)O)NC(=O)[C@H](CCN)NC(=O)[C@H](CCN)NC(=O)[C@H](CC(C)C)NC(=O)[C@@H](CC(C)C)NC(=O)[C@H](CCN)NC1=O)[C@H](C)O`, for which the minimum inhibitory concentration (MIC) was greater than 64 µg/mL in the data set on Staphylococcus aureus [1]; greater than 64 µg/mL in the data set with Staphylococcus aureus [2]; 16 µg/mL (≈ 16.3 µM) in data set [3]; 64 µg/mL (≈ 65.1 µM) in data set [4]; 64 µg/mL (≈ 65.1 µM) with Escherichia coli [5]; 64 µg/mL (≈ 65.1 µM) with Escherichia coli [6]. The MIC in the data set on Escherichia coli [7] is 32 µg/mL (≈ 32.5 µM); in the data set on Escherichia coli [8], 64 µg/mL (≈ 65.1 µM); in the data set with Klebsiella pneumoniae [9] it was 64 µg/mL (≈ 65.1 µM); with Klebsiella pneumoniae [10], 64 µg/mL (≈ 65.1 µM); with Klebsiella pneumoniae [11], 32 µg/mL (≈ 32.5 µM); with Pseudomonas aeruginosa [12] it was 16 µg/mL (≈ 16.3 µM). Moreover, the MIC in the data set with Pseudomonas aeruginosa [13] is 32 µg/mL (≈ 32.5 µM); with Pseudomonas aeruginosa [14] it was 32 µg/mL (≈ 32.5 µM); in the data set with Pseudomonas aeruginosa [15], 8 µg/mL (≈ 8.14 µM); with Acinetobacter baumannii [16] it was greater than 64 µg/mL; in the data set on Acinetobacter baumannii [17], 64 µg/mL (≈ 65.1 µM). The IC50 at 72 h in data set [18] came out at 240 µg/mL (≈ 244 µM). In addition, the selectivity ratio in data set [19] was determined as 3.8.

Values taken from ChEMBL document CHEMBL5380795, “Design, Synthesis, and Bioactivity Investigation of Cyclic Lipopeptide Antibiotics Containing Eight to Nine Amino Acids” (J Med Chem, 2023).
